According to patent US11014908B2, “Chemical compounds” (Pfizer Inc., priority 2018, dated 2021):
pIC50, pKd: −log10 of the molar value.

Key:
[1] = molecular target: T1, purified sickle cell hemoglobin (HbS) (Homo sapiens, UniProt P68871+P69905, E7V); assay: Binding affinity to purified HbS by Surface Plasmon Resonance (SPR); conditions: crosslinked biotinylated HbS, 1:1 binding model
T1 construct: HbS was obtained from the blood of homozygous S/S patients; from tissue; host or cells: red blood cells of homozygous S/S patients
Protocol: Binding Affinity, Kd (uM)
The binding affinity for compounds to purified sickle cell hemoglobin (HbS) was determined using Surface Plasmon Resonance (SPR). Patient Sickle Cell blood was obtained from Boston Children's Hospital in accordance with Institutional Review Board protocols. HbS was obtained from the blood of homozygous S/S patients, and purified using the method described in: Antonini and Brunori, Hemoglobin and Myoglobin in their Reactions with Ligands. Amsterdam, London, North-Holland Publishing Company, 1971. Whole blood was separated into red blood cell and plasma components by centrifugation, after which the plasma was decanted and discarded. Packed red blood cells were washed with normal saline (0.9% NaCl) and then lysed by 2:1 dilution with cold deionized water. The hemolysate was centrifuged to remove cellular debris, and further purified with the addition of Drabkin's Buffer (2.8 M potassium phosphate), and centrifugation with Celite®. Organic phosphates (2,3-BPG) were removed via gel filtration with Sephadex® G-25. HbS and wild-type hemoglobin, hemoglobin A (HbA), were separated by […], using diethylaminoethyl (DEAE)-Sepharose® fast flow, and eluted using a pH gradient from pH 8.5-pH 7.5. Purity of the resulting HbS and HbA was determined by native gel electrophoresis and HbS fractions used further.
To stabilize the tetrameric structure of hemoglobin, HbS was crosslinked between the beta subunits (Lys82-Lys82) using bis(3,5-dibromosalicyl) fumarate, as described in: Shibayama N. et al, J Am Chem Soc 2014, 136, 13, 5097-5105 and Shibayama N. et al, Biochemistry 1991, 39, 33, 8158-8165). Crosslinked HbS was subsequently biotynylated and captured on a custom made Streptavidin sensor to achieve protein density of 4000 to 5000 resonance units (RUs) on the surface. Compound binding to HbS using SPR was tested on Sierra Sensors MASS-1 instrument. The running buffer contained 100 mM Potassium Phosphate, pH 7.5, 0.005% Tween-20, 1 mM ethylenediaminetetraacetic acid (EDTA), 0.1 mg/mL bovine serum albumin with 1% DMSO. Compound samples were injected at a flow rate of 30 μL/min for 2 minutes association and at least 5 minutes of dissociation time. A 2- or 3-fold dilution series containing at least 4 concentrations were tested for each compound. The dose range was selected based on the activity of the compounds in biochemical assays, when available. Multiple blank injections of running buffer were run before and after each compound series to allow blank subtraction for compound data in the analysis software. Positive controls were run in each experiment to monitor and maintain the activity of HbS on the surface. A DMSO curve was run at the beginning of each data set to apply an excluded volume correction to the data during analysis. The data were processed and analyzed using Sierra Sensors and Scrubber 2.0 software. The binding affinities (dissociation constant Kd) were calculated by fitting the sensorgrams to a 1:1 binding model.

HbS = molecular target: T2, HbS (Homo sapiens, UniProt P68871+P69905, E7V); assay: 'R'-'T' assay (conversion of oxy HbS to deoxy HbS under deoxygenating conditions); format: biochemical; conditions: 50% inhibition of HbS 'R'-'T' conversion; 3 uM HbS, <1% O2
T2 construct: HbS was obtained from the blood of homozygous S/S patients; from tissue; host or cells: red blood cells of homozygous S/S patients
Protocol: Conversion from oxy (R, relaxed state) to deoxy (T, tense state) HbS in the presence of compound was performed to determine the ability of compounds to stabilize the oxy (R) state under deoxygenating conditions. The assay run was similar to the ‘Oxygen dissociation assay’ described in Oksenberg et al, Br J Haematology, 2016, 175, 141-153.
Assay ready compound plates were prepared by first preparing a master serial dilution plate from a 30 mM initial compound stock in 100% DMSO. From this master serial dilution plate, 167 nL of the desired compound concentration was delivered to the assay ready plates using acoustical dispensing. Plates were frozen at −20° C. until needed. Purified HbS-O2 (i.e. oxy HbS) was diluted to 3 uM in 100 mM potassium phosphate buffer, pH=7.4. 50 uL of 3 uM stock solution was added to each well of the assay ready plate and mechanically mixed eight times. Following mixing the plates were covered and incubated at room temperature for one hour with moderate shaking. Following incubation, the plates were placed in a deoxygenated environment (<1% O2) for two hours, and the conversion to deoxy HbS monitored as a function of time. Oxygenated and deoxygenated forms of hemoglobin were detected using the absorbance of the Soret peaks at 415 and 430 nm respectively, and absorbance measurements (optical density, OD) were taken at 0, 90 and 120 minutes. Background absorbance for correction was collected at 700 nm.
Data were analyzed by first subtracting baseline absorbance at 700 nm from 415 nm and 430 nm data at each timepoint, and then taking the ratio of 415/430 nm data (Ratio=[(OD415−OD700)/(OD430−OD700)]. The effect at each timepoint was calculated using the ratios from the previous calculation at time 0 and each time point of interest (Effect^time x=Ratio^time x/Ratio^time 0). Percent effect was calculated by comparing the effects of compound versus HbS only with the effects observed by the positive control compound tucaresol (percent effect=[(effect^time x compound−effect^time x HbS)/(effect^time x tucaresol−effect^time x HbS)]×100). Data were reported as the percent effect for a single point. Calculations to determine the concentration of compound for 50% inhibition (IC50 (uM)) of the HbS ‘R’-‘T’ conversion were based on the percent effect at varying compound concentration.

| SMILES | pKd [1] | pIC50 (HbS) |
| --- | --- | --- |
| Cc1cc2nc(N)c(O[C@@H](C)c3cc(C(=O)O)ccc3-n3cccn3)cc2cn1 [Example 22, 3-{(1S)-1-[(2-amino-7-methyl-1,6-naphthyridin-3-yl)oxy]ethyl}-4-(1H-pyrazol-1-yl)benzoic Acid] | 6.76 | 5.27 |
| C[C@H](Oc1cc2cc(F)cc(F)c2nc1N)c1cc(C(=O)O)c(F)cc1-n1cccn1 [Example 23, 5-{(1S)-1-[(2-amino-6,8-difluoroquinolin-3-yl)oxy]ethyl}-2-fluoro-4-(1H-pyrazol-1-yl)benzoic Acid] | 7.37 | 5.40 |
| C[C@H](Oc1cc2cc(F)cc(F)c2nc1N)c1cc(C(=O)NS(C)(=O)=O)ccc1-n1cccn1 [Example 24, 3-{(1S)-1-[(2-amino-6,8-difluoroquinolin-3-yl)oxy]ethyl}-N-(methylsulfonyl)-4-(1H-pyrazol-1-yl)benzamide] | 7.82 | 5.33 |
| C[C@H](Oc1cc2cc(Br)ccc2nc1N)c1ncc(F)cc1-n1cccn1 [Example 25, 6-bromo-3-{(1S)-1-[5-fluoro-3-(1H-pyrazol-1-yl)pyridin-2-yl]ethoxy}quinolin-2-amine] | 7.17 | 5.32 |
| C[C@H](Oc1cc2cc(C#N)ccc2nc1N)c1ncc(F)cc1-n1cccn1 [Example 26, 2-amino-3-{(1S)-1-[5-fluoro-3-(1H-pyrazol-1-yl)pyridin-2-yl]ethoxy}quinoline-6-carbonitrile] | 6.86 | 5.31 |
| C[C@H](Oc1cc2cc(Br)ccc2nc1N)c1ncccc1-n1cccn1 [Example 28, 6-bromo-3-{(1S)-1-[3-(1H-pyrazol-1-yl)pyridin-2-yl]ethoxy}quinolin-2-amine] | 6.80 | 5.18 |
| C[C@H](Oc1cc2cc(F)c(Cl)cc2nc1N)c1ncccc1-n1cccn1 [Example 29, 7-chloro-6-fluoro-3-{(1S)-1-[3-(1H-pyrazol-1-yl)pyridin-2-yl]ethoxy}quinolin-2-amine] | 7.17 | 5.34 |
| C[C@H](Oc1cc2cc(C(N)=O)ccc2nc1N)c1ncccc1-n1cccn1 [Example 30, 2-amino-3-{(1S)-1-[3-(1H-pyrazol-1-yl)pyridin-2-yl]ethoxy}quinoline-6-carboxamide] | 5.82 | 5.20 |
| C[C@H](Oc1cc2cc(F)c(Cl)cc2nc1N)c1ncc(F)cc1-n1cccn1 [Example 31, 7-chloro-6-fluoro-3-{(1S)-1-[5-fluoro-3-(1H-pyrazol-1-yl)pyridin-2-yl]ethoxy}quinolin-2-amine] | 7.16 | 5.30 |
| C[C@H](Oc1cc2cc(F)c(Cl)cc2nc1N)c1nc(C(N)=O)ccc1-n1cccn1 [Example 32, 6-{(1S)-1-[(2-amino-7-chloro-6-fluoroquinolin-3-yl)oxy]ethyl}-5-(1H-pyrazol-1-yl)pyridine-2-carboxamide] | 7.24 | 5.32 |
| C[C@H](Oc1cc2cc(F)ccc2nc1N)c1ncc(F)cc1-n1cccn1 [Example 33, 6-fluoro-3-{(1S)-1-[5-fluoro-3-(1H-pyrazol-1-yl)pyridin-2-yl]ethoxy}quinolin-2-amine] | 7.47 | 5.37 |
| C[C@H](Oc1cc2cc(C(N)=O)c(F)cc2nc1N)c1ncc(F)cc1-n1cccn1 [Example 34, 2-amino-7-fluoro-3-{(1S)-1-[5-fluoro-3-(1H-pyrazol-1-yl)pyridin-2-yl]ethoxy}quinoline-6-carboxamide] | 6.92 | 5.26 |
| C[C@H](Oc1cc2cc(C(N)=O)cc(F)c2nc1N)c1ncc(F)cc1-n1cccn1 [Example 35, 2-amino-8-fluoro-3-{(1S)-1-[5-fluoro-3-(1H-pyrazol-1-yl)pyridin-2-yl]ethoxy}quinoline-6-carboxamide] | 7.17 | 5.41 |
| Cc1cc2nc(N)c(O[C@@H](C)c3ncc(F)cc3-n3cccn3)cc2cn1 [Example 36, 3-{(1S)-1-[5-fluoro-3-(1H-pyrazol-1-yl)pyridin-2-yl]ethoxy}-7-methyl-1,6-naphthyridin-2-amine] | 6.80 | 5.11 |
| C[C@H](Oc1cc2cc(F)ccc2nc1N)c1nc(C(=O)O)ccc1-n1cccn1 [Example 37, 6-{(1S)-1-[(2-amino-6-fluoroquinolin-3-yl)oxy]ethyl}-5-(1H-pyrazol-1-yl)pyridine-2-carboxylic Acid] | 6.24 | 5.17 |
| C[C@H](Oc1cc2cc(F)cc(F)c2nc1N)c1ncc(F)cc1-n1cccn1 [Example 38, 6,8-difluoro-3-{(1S)-1-[5-fluoro-3-(1H-pyrazol-1-yl)pyridin-2-yl]ethoxy}quinolin-2-amine] | 7.35 | 5.44 |
| C[C@H](Oc1cc2cc(F)ccc2nc1N)c1nc(C(=O)O)c(F)cc1-n1cccn1 [Example 39, 6-{(1S)-1-[(2-amino-6-fluoroquinolin-3-yl)oxy]ethyl}-3-fluoro-5-(1H-pyrazol-1-yl)pyridine-2-carboxylic Acid] | 6.33 | 5.21 |
| C[C@H](Oc1cc2cc(F)ccc2nc1N)c1nc(OCC(=O)O)ccc1-n1cccn1 [Example 40, {[6-{(1S)-1-[(2-amino-6-fluoroquinolin-3-yl)oxy]ethyl}-5-(1H-pyrazol-1-yl)pyridin-2-yl]oxy}acetic Acid] | 6.79 | 5.28 |
| C[C@H](Oc1cc2cc(F)ccc2nc1N)c1nc(OCCO)ccc1-n1cccn1 [Example 41, 2-{[6-{(1S)-1-[(2-amino-6-fluoroquinolin-3-yl)oxy]ethyl}-5-(1H-pyrazol-1-yl)pyridin-2-yl]oxy}ethanol] | 7.36 | 5.42 |
| C[C@H](Oc1cc2cc(C(N)=O)ccc2nc1N)c1nc(OCCO)ccc1-n1cccn1 [Example 42, 2-amino-3-{(1S)-1-[6-(2-hydroxyethoxy)-3-(1H-pyrazol-1-yl)pyridin-2-yl]ethoxy}quinoline-6-carboxamide] | 6.85 | 5.28 |
| C[C@H](Oc1cc2c(F)ccc(F)c2nc1N)c1ncc(F)cc1-n1cccn1 [Example 43, 5,8-difluoro-3-{(1S)-1-[5-fluoro-3-(1H-pyrazol-1-yl)pyridin-2-yl]ethoxy}quinolin-2-amine] | 7.70 | 5.33 |
| C[C@H](Oc1cc2cc(C(N)=O)ccc2nc1N)c1nc(O)ccc1-n1cccn1 [Example 44, 2-amino-3-{(1S)-1-[6-hydroxy-3-(1H-pyrazol-1-yl)pyridin-2-yl]ethoxy}quinoline-6-carboxamide] | 7.20 | 5.36 |
| C[C@H](Oc1cc2ccccc2nc1N)c1ncc(F)cc1-n1cccn1 [Example 45, 3-{(1S)-1-[5-fluoro-3-(1H-pyrazol-1-yl)pyridin-2-yl]ethoxy}quinolin-2-amine] | 6.73 | 5.25 |
